Patent US20150238477A1, “Method of Treating Lung Adenocarcinoma” (EXELIXIS, INC., priority 2012, published 2015)

Tests used:
KIF5B-RET = molecular target: T1, KIF5B-RET (Homo sapiens, UniProt P07949); conditions: in vitro studies; cited from earlier work
T1 sequence (P07949 713-1063 limits assumed): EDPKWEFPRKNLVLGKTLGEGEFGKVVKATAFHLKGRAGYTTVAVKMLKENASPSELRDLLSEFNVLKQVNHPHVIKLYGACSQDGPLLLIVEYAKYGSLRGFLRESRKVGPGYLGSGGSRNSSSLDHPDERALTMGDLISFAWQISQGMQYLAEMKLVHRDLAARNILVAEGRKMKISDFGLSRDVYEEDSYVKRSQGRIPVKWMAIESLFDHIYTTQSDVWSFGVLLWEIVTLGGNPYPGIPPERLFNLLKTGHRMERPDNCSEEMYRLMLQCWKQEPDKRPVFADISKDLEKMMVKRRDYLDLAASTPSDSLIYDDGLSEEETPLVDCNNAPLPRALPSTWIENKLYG

[1] = plasma concentrations in TT xenograft study; type: in vivo, nu/nu mice; conditions: 30- and 60-mg/kg doses, oral once daily
AKT and ERK = assay: phosphorylation of AKT and ERK in TT xenograft tumors in vivo; set-up: species or system mice; conditions: single 100-mg/kg oral dose
Experimental: Levels of phosphorylated and total RET and were determined in pooled lysates by Western immunoblot analysis. In a separate study, mice bearing TT tumors were administered a single oral dose of cabozantinib (100 mg/kg) or water vehicle, and levels of phosphorylated and total RET, AKT, and ERK in tumor lysates were determined at the indicated time points post dose. Densitometric quantitation of the duration of inhibition of phosphorylation of RET versus plasma concentrations of cabozantinib. Representative Western blot images are shown. […] This effect was reversible as RET phosphorylation returned to basal levels by 48 hours after treatment as depicted in FIG. 1C.

RET = molecular target: T2, RET (Homo sapiens, UniProt P07949, C634W); assay: phosphorylation of RET in TT xenograft tumors in vivo (Western immunoblot); set-up: species or system mice
T2 construct: endogenous in cells; host or cells: TT cells (human medullary thyroid carcinoma), in culture or as xenograft tumours in nu/nu mice

[2] = mouse, in vivo
Experimental: (§1) Nu/nu mice bearing TT tumors were orally administered once daily water vehicle (□) or cabozantinib at 3 mg/kg (∇), 10 mg/kg (◯), 30 mg/kg (♦), or 60 mg/kg (⋄) for 21 days. Tumor weights were determined twice weekly. Data points represent the mean tumor weight (in milligrams) and SE for each treatment group. Circulating calcitonin levels were determined in serum preparations from whole blood collected after the final indicated doses (* indicates a significant, P <0.05, reduction in circulating calcitonin when compared to serum samples from vehicle-treated control animals).
. Given that TT xenograft tumors are known to secrete high amounts of human calcitonin that correlates with tumor size, serum concentrations of circulating calcitonin were determined at the end of the dosing period. […]; P <0.005) at both the 30- and 60-mg/kg doses when compared to vehicle control animals, as depicted in FIG. 2B. Moreover, this reduction in circulating plasma calcitonin correlated with TT tumor growth inhibition described above. […]

TT xenograft tumors = assay: TT xenograft tumor growth; type: in vivo, nu/nu mice; conditions: oral once daily, 21 days
Experimental: as §1

[3] = molecular target: T3, KIF5B-RET fusion-positive NSCLC (Homo sapiens, UniProt P07949); assay: case study, phase 1 monotherapy in a patient with KIF5B-RET fusion-positive NSCLC; type: in vivo
T3 construct: expression of variant 1 transcripts (KIF5B exon 15; RET exon 12); endogenous in cells; host or cells: lung adenocarcinoma cells of the patient (pleural effusion cells); the other entry of the earlier key: KIF5B (P33176, Kinesin-1 heavy chain)
T3 sequence (P07949 with tags, fused parts or gaps): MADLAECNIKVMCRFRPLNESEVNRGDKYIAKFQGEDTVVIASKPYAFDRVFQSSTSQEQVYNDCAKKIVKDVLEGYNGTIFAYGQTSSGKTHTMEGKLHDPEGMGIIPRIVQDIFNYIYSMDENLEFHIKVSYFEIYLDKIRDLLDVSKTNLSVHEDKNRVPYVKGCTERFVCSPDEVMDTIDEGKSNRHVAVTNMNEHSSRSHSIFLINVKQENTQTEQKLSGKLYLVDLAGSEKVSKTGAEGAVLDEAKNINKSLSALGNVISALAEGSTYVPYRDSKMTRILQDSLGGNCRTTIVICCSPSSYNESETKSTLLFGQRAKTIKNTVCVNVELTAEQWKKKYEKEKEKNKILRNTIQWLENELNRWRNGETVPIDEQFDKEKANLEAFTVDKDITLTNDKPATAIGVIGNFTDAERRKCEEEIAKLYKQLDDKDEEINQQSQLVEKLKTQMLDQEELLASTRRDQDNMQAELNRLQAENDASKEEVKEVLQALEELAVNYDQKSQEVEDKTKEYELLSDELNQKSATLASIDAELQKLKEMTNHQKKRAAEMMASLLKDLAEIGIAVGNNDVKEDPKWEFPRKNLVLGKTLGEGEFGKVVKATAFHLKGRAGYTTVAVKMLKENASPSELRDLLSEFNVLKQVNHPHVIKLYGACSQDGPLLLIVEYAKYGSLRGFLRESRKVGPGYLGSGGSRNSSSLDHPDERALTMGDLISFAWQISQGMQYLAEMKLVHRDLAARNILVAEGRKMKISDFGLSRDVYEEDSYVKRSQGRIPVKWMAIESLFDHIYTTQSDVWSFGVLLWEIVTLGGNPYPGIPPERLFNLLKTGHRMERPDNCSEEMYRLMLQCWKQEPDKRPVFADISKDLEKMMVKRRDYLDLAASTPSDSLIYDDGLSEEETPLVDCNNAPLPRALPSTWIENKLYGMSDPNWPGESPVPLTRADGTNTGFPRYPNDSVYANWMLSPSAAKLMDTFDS
Source text: A person who was a former smoker presented in April 2009 for evaluation of a right pleural effusion. […] There was also no tumor in either the neck or thyroid on the CT scans. The patient was diagnosed as having stage IIIB (cT4N0M0, 6th edition of the International System for Staging Lung cancer) adenocarcinoma of the lung. […] Re-growth of primary tumor was, however, reported 8 months after the end of therapy. The patient subsequently received 13 cycles of docetaxel as second-line treatment and 2 cycles of an investigational drug (anti-HER2 [human epidermal growth factor receptor type2] antibody) as third-line treatment. […] Yamamoto, N., Nokihara, H., Wakui, H., Yamada, Y., Frye, J., DeCillis, A., and Tamura, T. A phase 1 multiple ascending dose study of cabozantinib (XL184) monotherapy in Japanese patients with advanced solid tumors. Molecular Cancer Therapeutics. 2011 10 suppl 1 (abstr C26) and Nokihara, H., Yamamoto, N., Nakamichi, S., Wakui, H., Yamada, Y., Frye, J., Decillis, A., and Tamura, T. in Annals of Oncology, Vol. 23, Supplement 9, published September 17, 2012.
In February 2012, they terminated cabozantinib monotherapy due to progressive disease.

medullary thyroid cancer = conditions: 25 of 37 patients with MTC; cited from earlier work

T2 sequence (P07949 29-1114 C634W): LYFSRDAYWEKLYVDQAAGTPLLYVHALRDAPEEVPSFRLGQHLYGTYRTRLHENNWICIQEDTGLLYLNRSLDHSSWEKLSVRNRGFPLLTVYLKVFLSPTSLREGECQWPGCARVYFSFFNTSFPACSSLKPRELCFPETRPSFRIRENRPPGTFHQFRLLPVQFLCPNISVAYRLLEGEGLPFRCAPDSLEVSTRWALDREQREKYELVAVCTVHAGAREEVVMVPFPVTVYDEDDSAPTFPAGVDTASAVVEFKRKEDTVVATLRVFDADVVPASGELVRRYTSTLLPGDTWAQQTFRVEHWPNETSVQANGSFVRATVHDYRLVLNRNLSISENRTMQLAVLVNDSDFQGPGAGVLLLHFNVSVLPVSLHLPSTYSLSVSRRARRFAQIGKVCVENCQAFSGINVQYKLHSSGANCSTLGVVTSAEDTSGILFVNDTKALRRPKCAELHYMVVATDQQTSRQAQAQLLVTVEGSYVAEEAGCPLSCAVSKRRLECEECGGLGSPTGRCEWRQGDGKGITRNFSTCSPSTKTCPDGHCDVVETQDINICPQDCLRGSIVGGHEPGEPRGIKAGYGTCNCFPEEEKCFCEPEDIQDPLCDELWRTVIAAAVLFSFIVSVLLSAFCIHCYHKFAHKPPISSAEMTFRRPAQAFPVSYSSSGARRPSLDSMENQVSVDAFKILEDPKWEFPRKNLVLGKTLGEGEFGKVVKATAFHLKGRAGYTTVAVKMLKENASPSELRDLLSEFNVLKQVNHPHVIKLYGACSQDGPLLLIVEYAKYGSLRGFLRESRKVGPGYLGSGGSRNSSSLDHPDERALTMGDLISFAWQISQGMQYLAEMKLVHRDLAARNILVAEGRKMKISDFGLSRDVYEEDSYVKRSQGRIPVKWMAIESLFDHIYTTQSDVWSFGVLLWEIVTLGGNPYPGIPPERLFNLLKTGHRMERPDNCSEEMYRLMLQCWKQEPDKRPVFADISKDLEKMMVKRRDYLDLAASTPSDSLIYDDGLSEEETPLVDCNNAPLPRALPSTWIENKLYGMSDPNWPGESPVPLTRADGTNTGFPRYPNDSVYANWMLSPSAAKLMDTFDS

Structure (SMILES) | growth and signaling properties mediated by KIF5B-RET after treatment (KIF5B-RET) | peak cyclical plasma concentrations [1] | time of reduced phosphorylation levels of AKT and ERK post dose (AKT and ERK) | time of inhibition of phosphorylation of RET post dose (RET; single 100-mg/kg oral dose) | time at which RET phosphorylation returned to basal levels (RET; single 100-mg/kg oral dose, after treatment) | inhibition of phosphorylation of RET in tumors (RET; single ascending oral dose, tumors collected 4 h post dose) | tolerability (stable body weights) [2] | TT xenograft tumor growth (TT xenograft tumors; 10- and 30-mg/kg doses) | TT xenograft tumor growth outcome (TT xenograft tumors; 30- and 60-mg/kg doses) | adverse event leading to drug interruptions ([3]; during 10 cycles (months) of therapy, without clinical symptoms of pancreatitis) | response of primary lung tumor on chest CT ([3]; starting dose 40 mg once a day, at 9 weeks, confirmed at 17 weeks) | tumor reduction ([3]; starting dose 40 mg once a day, chest CT at 9 weeks) | patients with confirmed partial response or stable disease for 6 months or longer (medullary thyroid cancer)
CNC(=O)c1cc(Oc2ccc(NC(=O)Nc3ccc(Cl)c(C(F)(F)F)c3)cc2)ccn1 [sorafenib] | diminished | – | – | – | – | – | – | – | – | – | – | – | –
COc1cc2nccc(Oc3ccc(NC(=O)C4(C(=O)Nc5ccc(F)cc5)CC4)cc3)c2cc1OC [Compound 1, N-(4-{[6,7-bis(methyloxy)quinolin-4-yl]oxy}phenyl)-N′-(4-fluorophenyl)cyclopropane-1,1-dicarboxamide] | – | 3,000 to 45,000 nmol/L | 4 to 24 h | 4 to 24 h | ≤ 48 h | dose-dependent inhibition of phosphorylation of RET | well tolerated | dose-dependent inhibition | stable disease | grade 3 serum lipase elevations | partial response | 40.1% | 68%
